Assays:
Theileria parva = test: Inhibition of Theileria parva deoxyhypusine synthase expressed in Escherichia coli Rosetta cells assessed as reduction in deoxyhypusine level at 2 uM
Plasmodium falciparum = test: Antiplasmodial activity against Plasmodium falciparum 3D7 assessed as inhibition of parasite growth at 5 uM; assay type: functional

| SMILES | inhibition (Theileria parva) [%] | inhibition at 5 µM (Plasmodium falciparum) [%] |
| --- | --- | --- |
| Fc1ccc2[nH]c3c(NCCCN4CCOCC4)ncnc3c2c1 | 23 | 98 |
| O=[N+]([O-])c1ccc(C=NNc2nc3ccccc3[nH]2)cc1 | 56 | 99 |
| CNCCCNc1ccnc2cc(Cl)ccc12 | 13 | 98 |
